The record followed here is patent US7632816B2, “Treatment of Alzheimer amyloid deposition” (New York University, priority 2003, dated 2009).

Structures are written as SMILES. Square brackets hold non-standard residues; d marks the D form. Peptide text beside a SMILES is read from it.

Data set [1] deals with T1, apoE4 (Homo sapiens, UniProt P02649, C130R).
T1 construct: made in house; host or cells: primary forebrain astrocytes of GFAP-human apoE4 transgenic mice
Put plainly: Competitive inhibition ELISA: apoE4 binding to immobilized Aβ1-40. As to the method:
Lipidated apoE4 100 nM was preincubated with an increasing concentration of Aβ12-28P (0-400 nM) in 10 mM Tris buffer pH 7.4 for three hours at 37° C., and then added to the plate (100 μL/well). […] The color reaction was developed with a 3,3,5,5-tetramethybenzidine substrate (Sigma, St. Louis, Mo.), stopped with 2M sulfuric acid, and optical density (“OD”) was read at 450 nm on a 7520 Microplate Reader (Cambridge Technology, Watertown, Mass.). Non-specific binding was determined using bovine serum albumin and/or omitting the apoE4 in the assay. OD values were converted to percentages with the binding of apoE4 in the absence of inhibitor being considered as 100%. The mean±standard deviation from three independent duplicate experiments was plotted in FIG. 3 and analyzed by a one site competition nonlinear regression fit algorithm using GraphPad Prism v4.0 (GraphPad Software, San Diego, Calif.).
(In general: An ELISA detects its analyte on a solid surface through an enzyme-linked reagent.)

The format of data set [2] is physicochemical. The text has this: Circular dichroism (“CD”) was used to study the secondary structure of peptides in solution as described previously (Golabek et al., “The Interaction Between Apolipoprotein E and Alzheimer's Amyloid β-peptide is Dependent on β-peptide Conformation,” J. Biol. Chem. 271:10602-10606 (1996); Soto et al., “Alzheimer's Soluble β-amyloid is Conformationally Modified by Apolipoproteins in vitro,” Neuroreport 7:721-725 (1996); which are hereby incorporated by reference in their entirety). Aliquots of HFIP treated peptides were diluted in 5 mmol/L Tris buffer (pH 7.0) to obtain a peptide concentration of 100 μmol/L, and were incubated at 37° C. CD was measured at indicated intervals with t=0 being immediately after the peptide was reconstituted. Measurements were on a Jasco J-720 spectropolarimeter (Easton, Md.), equipped with a model CTC-344 circular temperature control system (Neslab Inc., Newington, N.H.), at final protein concentration of 0.15 mg/ml in a cell with 0.1 cm path length. The spectra were recorded at 1 nm intervals over the wavelength range of 190-260 nm at 15° C. Results were expressed as molar ellipticity in units of deg-cm^2-dmol^−1, and the data were analyzed by the Lincomb, convex constraints and neural network algorithms to obtain percentages of different types of secondary structures using Softsec software (Softwood Inc., PA.) (Perczel et al., “Analysis of Circular Dichroism Spectrum of Proteins Using the Convex Constraint Algorithm,” Anal. Biochem. 203:83-93 (1992); Manavalan et al., “Variable Selection Method Improves the Prediction of Protein Secondary Structure from Circular Dichroism,” Anal. Biochem. 167:76-85 (1987); Toumadje et al., “Extending CD Spectra of Proteins to 168nm Improves the Analysis for Secondary Structures,” Anal. Biochem. 200:321-331 (1992); Sreerma et al., “A Self-consistent Method for the Analysis of Protein Secondary Structure from Circular Dichroism,” Anal. Biochem. 209:32-44 (1993); which are hereby incorporated by reference in their entirety). […]

[3] abbreviates: CD immediately after reconstitution, 5 mmol/L Tris pH 7.0.

T1 sequence (P02649 19-317 C130R): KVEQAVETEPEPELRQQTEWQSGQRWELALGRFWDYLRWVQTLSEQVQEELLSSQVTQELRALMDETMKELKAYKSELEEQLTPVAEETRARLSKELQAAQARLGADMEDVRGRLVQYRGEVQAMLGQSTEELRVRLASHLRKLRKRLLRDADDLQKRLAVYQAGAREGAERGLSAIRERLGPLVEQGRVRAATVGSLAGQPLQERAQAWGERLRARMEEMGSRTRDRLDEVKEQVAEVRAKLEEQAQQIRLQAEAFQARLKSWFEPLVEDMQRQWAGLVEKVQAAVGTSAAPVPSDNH

The term IC50 denotes the point on the concentration scale where inhibition reaches its midpoint. A high value points to weaker potency. For orientation: Ki means the equilibrium dissociation constant of an inhibitor or competing ligand from its target. Turning to `CC(=O)N[C@@H](C(=O)N[C@H](Cc1c[nH]cn1)C(=O)N[C@H](Cc1c[nH]cn1)C(=O)N[C@H](CCC(N)=O)C(=O)N[C@H](CCCCN)C(=O)N[C@H](CC(C)C)C(=O)N1CCC[C@@H]1C(=O)N[C@H](Cc1ccccc1)C(=O)N[C@H](Cc1ccccc1)C(=O)N[C@H](C)C(=O)N[C@H](CCC(=O)O)C(=O)N[C@H](CC(=O)O)C(=O)N[C@@H](C(=O)NCC(=O)N[C@H](CO)C(=O)N[C@H](CC(N)=O)C(=O)N[C@H](CCCCN)C(N)=O)C(C)C)C(C)C` [Aβ12-28P] (Ac-[dV][dH][dH][dQ][dK][dL][dP][dF][dF][dA][dE][dD][dV]G[dS][dN][dK]-NH2), the IC50 in data set [1] (100 nM lipidated apoE4 preincubated with 0-400 nM peptide, one-site competition fit) was found to be 36.7 nM. Also, the Ki in data set [1] (read-out: inhibition constant (KI)) is 11.4 nM. The compound also showed a β-sheet content in data set [2] (CD at time=0) of 2%. In data set [2] (setting [3]), the “random coil, share of the total protein structure” value is 59% and the “∝-helix, share of the total protein structure” value was 39%.
